Data published in US20260325533A1, “CDK INHIBITOR COMPOUNDS” (ALEKSIA THERAPEUTICS, INC., priority 2023, published 2026).
Where two headings read alike, the source gives them in different places. One block for each compound: values may come before it.

Assays:
Assay type in all cases: biochemical
CDK6/CCND1 = CDK6/CCND1 (Homo sapiens, UniProt Q00534); assay: CDK6 homogeneous time-resolved fluorescence (HTRF) kinase assay
In short: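 Recombinant CDK6/CCND1 (1 nM final) was preincubated with compound for 20 min at 23 °C in HEPES buffer with MgCl2, EGTA, DTT and Tween 20. Kinase reaction then ran 60 min at 23 °C with 1 mM ATP and 50 nM ULight-4E-BP1 (Thr37/46) peptide, and was stopped with EDTA.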

CDK1/CCNB1 = CDK1/CCNB1 (Homo sapiens, UniProt P06493); assay: CDK1 homogeneous time-resolved fluorescence (HTRF) kinase assay
Chain of CDK1/CCNB1 (P06493 whole entry): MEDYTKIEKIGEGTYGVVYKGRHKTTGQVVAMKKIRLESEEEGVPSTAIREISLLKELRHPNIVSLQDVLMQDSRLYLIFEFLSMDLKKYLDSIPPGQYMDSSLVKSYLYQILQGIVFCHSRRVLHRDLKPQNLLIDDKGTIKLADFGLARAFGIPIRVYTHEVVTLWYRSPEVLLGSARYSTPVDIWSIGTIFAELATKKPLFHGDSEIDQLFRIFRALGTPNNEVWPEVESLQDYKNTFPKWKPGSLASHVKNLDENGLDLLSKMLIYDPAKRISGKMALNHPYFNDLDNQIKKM
Chain of CDK1/CCNB1 (P14635 whole entry partner): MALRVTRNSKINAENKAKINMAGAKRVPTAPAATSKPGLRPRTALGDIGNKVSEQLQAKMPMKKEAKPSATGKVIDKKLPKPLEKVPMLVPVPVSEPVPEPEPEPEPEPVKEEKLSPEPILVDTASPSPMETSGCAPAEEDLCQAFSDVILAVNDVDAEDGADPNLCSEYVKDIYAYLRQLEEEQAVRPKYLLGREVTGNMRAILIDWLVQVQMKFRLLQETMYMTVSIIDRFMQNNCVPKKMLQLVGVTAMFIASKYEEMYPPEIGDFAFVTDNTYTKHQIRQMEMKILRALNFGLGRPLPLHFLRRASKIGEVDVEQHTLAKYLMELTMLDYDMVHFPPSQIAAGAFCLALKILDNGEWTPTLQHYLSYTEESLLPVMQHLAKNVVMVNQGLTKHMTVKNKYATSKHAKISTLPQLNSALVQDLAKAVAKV
In short: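 Kinase activity is measured as Lance signal (665 nm, or 665/615 nm ratio) from europium-labelled anti-phospho-Thr37/46 antibody binding ULight-4E-BP1 peptide. Reactions contain 0.5 nM enzyme, 1 mM ATP, 1% DMSO and run 60 min at 23 °C before EDTA quench.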

CDK4/CCND3 = CDK4/CCND3 (Homo sapiens, UniProt P11802); assay: CDK4 homogeneous time-resolved fluorescence (HTRF) kinase assay
Chain of CDK4/CCND3 (P11802 whole entry): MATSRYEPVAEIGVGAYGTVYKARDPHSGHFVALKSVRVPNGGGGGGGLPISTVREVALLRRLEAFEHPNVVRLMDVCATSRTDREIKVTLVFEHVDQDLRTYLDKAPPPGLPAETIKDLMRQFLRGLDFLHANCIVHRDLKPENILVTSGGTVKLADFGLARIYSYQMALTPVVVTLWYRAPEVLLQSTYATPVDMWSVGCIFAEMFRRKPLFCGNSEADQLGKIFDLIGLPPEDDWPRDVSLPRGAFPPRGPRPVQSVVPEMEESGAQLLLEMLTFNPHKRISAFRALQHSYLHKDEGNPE
Chain of CDK4/CCND3 (P30281 whole entry partner): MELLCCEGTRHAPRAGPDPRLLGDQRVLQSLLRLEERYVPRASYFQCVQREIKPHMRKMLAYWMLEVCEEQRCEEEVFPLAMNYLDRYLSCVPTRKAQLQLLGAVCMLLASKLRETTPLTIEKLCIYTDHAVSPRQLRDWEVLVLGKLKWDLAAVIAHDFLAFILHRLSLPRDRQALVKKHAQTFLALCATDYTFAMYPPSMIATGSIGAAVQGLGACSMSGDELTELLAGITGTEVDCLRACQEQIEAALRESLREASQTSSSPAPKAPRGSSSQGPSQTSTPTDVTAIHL
In short: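 HTRF kinase assay, CDK4/CCND3 1.5 nM, ATP 1 mM, ULight-4E-BP1 peptide 50 nM, 23 °C, 60 min reaction after 20 min preincubation. Eu-anti-pThr37/46 antibody detection. 11-pt half-log curves from 10 μM → IC50.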

CDK2/CCNE1 = CDK2/CCNE1 (Homo sapiens, UniProt P24941); assay: CDK2 homogeneous time-resolved fluorescence (HTRF) kinase assay
In short: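 An HTRF format measures CDK2/CCNE1 (3 nM) phosphorylating a 4E-BP1 Thr37/46 peptide at high (1 mM) ATP. Reactions run one hour at 23 °C, then EDTA-quenched and probed with Eu-labelled phospho-specific antibody.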

[1] = CDK2/CCNE, x = IC50 <25 nM, read-out: CDK2/CCNE IC50 (<25 nM)
[2] = >250 nM, CDK1/CCNB, read-out: CDK1/CCNB IC50 >250 nM
[3] = <25 nM, CDK2/CCNE, read-out: CDK2/CCNE IC50, <25 nM
[4] = CDK6/CCND, x = IC50 >250 nM, read-out: CDK6/CCND IC50 (>250 nM column)
[5] = CDK1/CCNB, x = IC50 >250 nM, read-out: CDK1/CCNB IC50 (>250 nM column)
[6] = CDK4/CCND, x = IC50 >250 nM, read-out: CDK4/CCND IC50 (>250 nM column)
[7] = >250 nM, CDK6/CCND, 1 mM ATP, read-out: CDK6/CCND IC50, >250 nM
[8] = >250 nM, CDK4/CCND, read-out: CDK4/CCND IC50, >250 nM
[9] = CDK6/CCND, >250 nM marked x, read-out: CDK6/CCND IC50 >250 nM
[10] = CDK1/CCNB, >250 nM marked x, read-out: CDK1/CCNB IC50 >250 nM
[11] = CDK4/CCND, >250 nM marked x, read-out: CDK4/CCND IC50 >250 nM
[12] = CDK2/CCNE, <25 nM, read-out: CDK2/CCNE IC50 <25 nM
[13] = 25-250 nM, CDK2/CCNE, read-out: CDK2/CCNE IC50, 25-250 nM

Chain of CDK6/CCND1 (Q00534 whole entry): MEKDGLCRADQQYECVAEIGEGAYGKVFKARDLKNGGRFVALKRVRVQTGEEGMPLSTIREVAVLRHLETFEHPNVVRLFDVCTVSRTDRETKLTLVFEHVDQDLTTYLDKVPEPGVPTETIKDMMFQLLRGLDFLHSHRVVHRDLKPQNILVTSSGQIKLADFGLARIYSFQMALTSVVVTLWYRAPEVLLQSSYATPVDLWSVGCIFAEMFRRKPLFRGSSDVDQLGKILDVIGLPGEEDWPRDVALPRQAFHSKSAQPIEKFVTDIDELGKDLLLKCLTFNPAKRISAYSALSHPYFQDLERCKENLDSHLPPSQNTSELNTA
Chain of CDK6/CCND1 (P24385 whole entry partner): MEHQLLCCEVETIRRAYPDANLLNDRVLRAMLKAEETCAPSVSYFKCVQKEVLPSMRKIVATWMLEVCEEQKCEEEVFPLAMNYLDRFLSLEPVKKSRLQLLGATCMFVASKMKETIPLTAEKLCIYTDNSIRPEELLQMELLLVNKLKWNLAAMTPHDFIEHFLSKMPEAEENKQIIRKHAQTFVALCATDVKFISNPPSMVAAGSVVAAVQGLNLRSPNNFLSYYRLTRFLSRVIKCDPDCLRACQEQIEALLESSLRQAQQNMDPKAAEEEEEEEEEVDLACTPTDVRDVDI

IC50 (CDK6/CCND1; 1 nM CDK6/CCND1, 1 mM ATP, read-out: CDK6/CCND IC50 25-250 nM): 25 to 250 nM
IC50 (CDK1/CCNB1; 0.5 nM CDK1/CCNB1, 1 mM ATP, read-out: CDK1/CCNB IC50 25-250 nM): 25 to 250 nM
IC50 (CDK4/CCND3; 1.5 nM CDK4/CCND3, 1 mM ATP, read-out: CDK4/CCND IC50 25-250 nM): 25 to 250 nM
IC50 (CDK2/CCNE1; 3 nM CDK2/CCNE1, 1 mM ATP, read-out: CDK2/CCNE IC50 <25 nM): < 25 nM
Structure (SMILES): Cc1c(-c2c(C#N)ccc3cnc(Nc4ccc(S(C)(=O)=O)cc4)nc23)ccc2nn(C)cc12 [Example 964, 8-(2,4-dimethyl-2H-indazol-5-yl)-2-((4-(methylsulfonyl)phenyl)amino) quinazoline-7-carbonitrile]

IC50 (CDK6/CCND1; [9]): > 250 nM
IC50 (CDK1/CCNB1; [10]): > 250 nM
IC50 (CDK4/CCND3; CDK4/CCND, 25-250 nM marked x, read-out: CDK4/CCND IC50 25-250 nM): 25 to 250 nM
IC50 (CDK2/CCNE1; [12]): < 25 nM
Structure (SMILES): N=S(=O)(c1ccc(Nc2cc3c(C#Cc4ccc5c(c4)NC(=O)C54CC4)nccc3cn2)c(F)c1)C1COC1 (single isomer, unassigned) [Example 275, 6′-((7-((2-fluoro-4-(oxetane-3-sulfonimidoyl)phenyl)amino)-2,6-naphthyridin-1-yl)ethynyl)spiro[cyclopropane-1,3′-indolin]-2′-one]

IC50 (CDK6/CCND1; [7]): > 250 nM
IC50 (CDK1/CCNB1; [2]): > 250 nM
IC50 (CDK4/CCND3; [8]): > 250 nM
IC50 (CDK2/CCNE1; >250 nM, CDK2/CCNE, read-out: CDK2/CCNE IC50, >250 nM): > 250 nM
Structure (SMILES): CN1CCN(S(=O)(=O)c2ccc(Nc3cc4c(C#Cc5ccc(C#N)cc5)nccc4cn3)cc2)CC1 [Ex 933, 4-((7-((4-((4-methylpiperazin-1-yl)sulfonyl)phenyl)amino)-2,6-naphthyridin-1-yl)ethynyl)benzonitrile]

IC50 (CDK6/CCND1; [7]): > 250 nM
IC50 (CDK1/CCNB1; [2]): > 250 nM
IC50 (CDK4/CCND3; [8]): > 250 nM
IC50 (CDK2/CCNE1; [13]): 25 to 250 nM
Structure (SMILES): CS(=O)(=O)c1ccc(Nc2cc3c(C#Cc4c(F)cncc4F)nccc3cn2)cc1 [Ex 871, 5-((3,5-difluoropyridin-4-yl)ethynyl)-N-(4-(methylsulfonyl)phenyl)-2,6-naphthyridin-3-amine]

IC50 (CDK6/CCND1; [7]): > 250 nM
IC50 (CDK1/CCNB1; [2]): > 250 nM
IC50 (CDK4/CCND3; [8]): > 250 nM
IC50 (CDK2/CCNE1; [3]): < 25 nM
Structure (SMILES): CNS(=O)(=O)c1ccc(Nc2cc3c(-c4ccc5c(cnn5CC(O)(C(F)(F)F)C(F)(F)F)c4C)nccc3cn2)cc1 [Example 696, N-methyl-4-((5-(4-methyl-1-(3,3,3-trifluoro-2-hydroxy-2-(trifluoromethyl)propyl)-1H-indazol-5-yl)-2,6-naphthyridin-3-yl)amino)benzenesulfonamide]

More lines, now with the values behind:

Structure (SMILES): CNC(=O)Cn1ncc2c(C)c(-c3nccc4cnc(Nc5ccc(S(C)(=O)=O)cc5)cc34)ccc21 [Ex 640, N-methyl-2-(4-methyl-5-(7-((4-(methylsulfonyl)phenyl)amino)-2,6-naphthyridin-1-yl)-1H-indazol-1-yl)acetamide]
IC50 (CDK6/CCND1; CDK6/CCND, x = IC50 25-250 nM, read-out: CDK6/CCND IC50 (25-250 nM)): 25 to 250 nM
IC50 (CDK1/CCNB1; CDK1/CCNB, x = IC50 25-250 nM, read-out: CDK1/CCNB IC50 (25-250 nM)): 25 to 250 nM
IC50 (CDK4/CCND3; CDK4/CCND, x = IC50 25-250 nM, read-out: CDK4/CCND IC50 (25-250 nM)): 25 to 250 nM
IC50 (CDK2/CCNE1; [1]): < 25 nM

Structure (SMILES): CCNS(=O)(=O)c1ccc(Nc2cc3c(-c4ccc5c(cnn5CC(C)(C)O)c4C)nccc3cn2)cc1 [Ex 795, N-ethyl-4-((5-(1-(2-hydroxy-2-methylpropyl)-4-methyl-1H-indazol-5-yl)-2,6-naphthyridin-3-yl)amino)benzenesulfonamide]
IC50 (CDK6/CCND1; 25-250 nM, CDK6/CCND, 1 mM ATP, read-out: CDK6/CCND IC50, 25-250 nM): 25 to 250 nM
IC50 (CDK1/CCNB1; [2]): > 250 nM
IC50 (CDK4/CCND3; 25-250 nM, CDK4/CCND, read-out: CDK4/CCND IC50, 25-250 nM): 25 to 250 nM
IC50 (CDK2/CCNE1; [3]): < 25 nM

Structure (SMILES): COc1cc(S(=N)(=O)C(C)C)ccc1Nc1cc2c(C#Cc3ccc4c(c3)NC(=O)C43CCC3)nccc2cn1 (single isomer, unassigned) [Ex 345, 6'-((7-((2-methoxy-4-(propan-2-ylsulfonimidoyl)phenyl)amino)-2,6-naphthyridin-1-yl)ethynyl)spiro[cyclobutane-1,3'-indolin]-2'-one]
IC50 (CDK6/CCND1; [4]): > 250 nM
IC50 (CDK1/CCNB1; [5]): > 250 nM
IC50 (CDK4/CCND3; [6]): > 250 nM
IC50 (CDK2/CCNE1; [1]): < 25 nM

Structure (SMILES): Cc1c(-c2nccc3cnc(Nc4ccc(S(=O)(=O)Nc5cccc(N6CCOCC6)c5)cc4)cc23)ccc2c1cnn2CC(C)(C)O [Ex 803, 4-((5-(1-(2-hydroxy-2-methylpropyl)-4-methyl-1H-indazol-5-yl)-2,6-naphthyridin-3-yl)amino)-N-(3-morpholinophenyl)benzenesulfonamide]
IC50 (CDK6/CCND1; [7]): > 250 nM
IC50 (CDK1/CCNB1; [2]): > 250 nM
IC50 (CDK4/CCND3; [8]): > 250 nM
IC50 (CDK2/CCNE1; [3]): < 25 nM

Structure (SMILES): CCC1(CC)C(=O)Nc2cc(C#Cc3nccc4cnc(Nc5ccc(S(=N)(=O)C6CC6)cc5OC)cc34)ccc21 (single isomer, unassigned) [Ex 299, 6-((7-((4-(cyclopropanesulfonimidoyl)-2-methoxyphenyl)amino)-2,6-naphthyridin-1-yl)ethynyl)-3,3-diethylindolin-2-one]
IC50 (CDK6/CCND1; [9]): > 250 nM
IC50 (CDK1/CCNB1; [10]): > 250 nM
IC50 (CDK4/CCND3; [11]): > 250 nM
IC50 (CDK2/CCNE1; CDK2/CCNE, 25-250 nM marked x, read-out: CDK2/CCNE IC50 25-250 nM): 25 to 250 nM

Structure (SMILES): Cc1c(-c2nccc3cnc(Nc4ccc(S(=O)(=O)Nc5ccccc5N5CCOCC5)cc4)cc23)ccc2c1cnn2CC(O)(C(F)(F)F)C(F)(F)F [Ex 713, 4-((5-(4-methyl-1-(3,3,3-trifluoro-2-hydroxy-2-(trifluoromethyl)propyl)-1H-indazol-5-yl)-2,6-naphthyridin-3-yl)amino)-N-(2-morpholinophenyl)benzenesulfonamide]
IC50 (CDK6/CCND1; [7]): > 250 nM
IC50 (CDK1/CCNB1; [2]): > 250 nM
IC50 (CDK4/CCND3; [8]): > 250 nM
IC50 (CDK2/CCNE1; [13]): 25 to 250 nM

Structure (SMILES): Nc1ncccc1C#Cc1nccc2cnc(Nc3ccc(S(=O)(=O)NC4CCOCC4)cc3)cc12 [Ex 434, 4-((5-((2-aminopyridin-3-yl)ethynyl)-2,6-naphthyridin-3-yl)amino)-N-(tetrahydro-2H-pyran-4-yl)benzenesulfonamide]
IC50 (CDK6/CCND1; [4]): > 250 nM
IC50 (CDK1/CCNB1; [5]): > 250 nM
IC50 (CDK4/CCND3; [6]): > 250 nM
IC50 (CDK2/CCNE1; [1]): < 25 nM

Structure (SMILES): CCS(=N)(=O)c1ccc(Nc2cc3c(C#Cc4ccc5c(c4)NC(=O)C54CCC4)nccc3cn2)c(OC)c1 (single isomer, unassigned) [Ex 310, 6'-((7-((4-(ethylsulfonimidoyl)-2-methoxyphenyl)amino)-2,6-naphthyridin-1-yl)ethynyl)spiro[cyclobutane-1,3'-indolin]-2'-one]
IC50 (CDK6/CCND1; [9]): > 250 nM
IC50 (CDK1/CCNB1; [10]): > 250 nM
IC50 (CDK4/CCND3; [11]): > 250 nM
IC50 (CDK2/CCNE1; [12]): < 25 nM

Structure (SMILES): COc1cccc(NS(=O)(=O)c2ccc(Nc3cc4c(-c5ccc6c(cnn6CC(O)(C(F)(F)F)C(F)(F)F)c5C)nccc4cn3)cc2)n1 [Ex 735, N-(6-methoxypyridin-2-yl)-4-((5-(4-methyl-1-(3,3,3-trifluoro-2-hydroxy-2-(trifluoromethyl)propyl)-1H-indazol-5-yl)-2,6-naphthyridin-3-yl)amino)benzenesulfonamide]
IC50 (CDK6/CCND1; [7]): > 250 nM
IC50 (CDK1/CCNB1; [2]): > 250 nM
IC50 (CDK4/CCND3; [8]): > 250 nM
IC50 (CDK2/CCNE1; [13]): 25 to 250 nM

Structure (SMILES): CC(C)(O)c1ccc(C#Cc2nccc3cnc(Nc4ccc(S(C)(=O)=O)cc4)cc23)cc1 [Ex 596, 2-(4-((7-((4-(methylsulfonyl)phenyl)amino)-2,6-naphthyridin-1-yl)ethynyl)phenyl)propan-2-ol]
IC50 (CDK6/CCND1; [4]): > 250 nM
IC50 (CDK1/CCNB1; [5]): > 250 nM
IC50 (CDK4/CCND3; [6]): > 250 nM
IC50 (CDK2/CCNE1; CDK2/CCNE, x = IC50 25-250 nM, read-out: CDK2/CCNE IC50 (25-250 nM)): 25 to 250 nM

Structure (SMILES): Cc1c(-c2nccc3cnc(Nc4ccc(NS(=O)(=O)c5ccsc5)cc4)cc23)ccc2c1cnn2CC(C)(C)O [Ex 831, N-(4-((5-(1-(2-hydroxy-2-methylpropyl)-4-methyl-1H-indazol-5-yl)-2,6-naphthyridin-3-yl)amino)phenyl)thiophene-3-sulfonamide]
IC50 (CDK6/CCND1; [7]): > 250 nM
IC50 (CDK1/CCNB1; [2]): > 250 nM
IC50 (CDK4/CCND3; [8]): > 250 nM
IC50 (CDK2/CCNE1; [3]): < 25 nM
